Measured values from EP4652992A1, “OPHTHALMIC COMPOSITION FOR PREVENTING AND TREATING CONJUNCTIVA EPITHELIUM DAMAGE AND ASSOCIATED DISCOMFORT CAUSED BY HYPOTONIZING FORMULATIONS” (FB Vision S.p.A., priority 2024, dated 2025).
Where a name gives a salt, the structure may show the parent alone.

What was measured:
[1] = system: human conjunctival epithelial cells (HCE); experiment: Cell growth and vitality of HCE cells (trypan blue exclusion test and MTT assay); assay type: cell-based
Description: In vitro tests on human conjunctival epithelial cells (HCE) for the experimental verification of the cytoprotective and antioxidant activity of beta caryophyllene (BCP) on the oxidative damage induced by anti-glaucoma medicines (AD). Characterization of the cytoprotective effects of beta-caryophyllene (BCP) on the human conjunctival epithelial cells exposed to oxidative and mitochondrial stress. This stress mimics the irritant and inflammatory action of hypotonizing ophthalmic medicines on the external structures of the human eye.
The HCE cells were exposed for 24 and 48 hours with increasing concentrations of BRIM (from 0.25 up to 4 mg/mL), DZL (from 0.086 up to 0.43%) and TFP (from 0.9 up to 30 µg/mL), alone and in combination with various concentrations of BCP (from 1.25 up to 40 µM), and the cell growth and vitality were evaluated respectively using the trypan blue exclusion test and the MTT assay. […] The IC50 ([…]) values for BRIM and DZL on their own are given respectively in the accompanying Figures 1 and 2. The in vitro interactions between BCP and BRIM or DZL, as illustrated in Figures 3A and B, were determined by the ÿE model of non-parametric response surface analysis. […] In particular, the most advantageous combinations were 10 µM BCP with 2 mg/ml BRIM and 2.5 µM BCP with 0.25% DZL. Of the combinations selected, only the combination 10 µM BCP and 2 mg/mL BRIM, which reflects the commercial formulation of the eye drops for treatment, was studied further. All the statistical comparisons were performed with respect to vCTR (vehicle control).

[2] = system: HCE cells; experiment: Apoptosis, cytofluorimetric analysis; assay type: cell-based, human; conditions: BRIM/BCP with respect to BRIM
Protocol: Figure 5 is a bar graph showing the percentage values of apoptotic cells (early and late) and necrotic cells in experimental groups exposed for 48 hours to BRIM and BCP.

[3] = system: HCE cells; conditions: 3 - 24 hours, any analyzed moment, JC-1 dye
Protocol: After the treatments, the ÿÿm was analyzed using JC-1 dye.
Measurements of mitochondrial activity, performed by means of experiments over time (3 - 24 hours), were evaluated by means of coloring with JC-1 dye.

[4] = system: HCE cells; conditions: 48 hours of incubation
Protocol: The distribution of cell cycle phases is shown using PI dyeing and analyzed using flow cytometry. The bar charts show the percentage of cells in each phase and represent the average ± SE of the results of three independent experiments; one-way ANOVA followed by Bonferroni's t-test; *p<0.05 with respect to vCTR.
The cells were treated for 24 hours and 48 hours, and cytofluorimetric analyses of the cell cycle phase were performed for the distribution (Figure 4) and the apoptosis (Figure 5).

[5] = system: HCE cells; conditions: 24 hours, vs. vCTR
Protocol: After 24 hours of treatment, intracellular production of ROS was analyzed using DCHF-DA with respect to vCTR. The values shown represent the average ± SE of the results of three independent experiments; one-way ANOVA followed by the Holm-Šidák method; *p<0.05 with respect to vCTR; p<0.05 BRIM/BCP with respect to BRIM dyeing with fluorescent dye. The values express the intensity of the fluorescence (Arbitrary Units, AU) and represent the average ± SE of the results of three independent experiments; one-way ANOVA in the rows; *p<0.05 with respect to vCTR.

CC(C)OC(=O)CCC/C=C\C[C@@H]1[C@@H](/C=C/C(F)(F)COc2ccccc2)[C@H](O)C[C@@H]1O [TFP, tafluprost]
cytotoxic effects ([1]; HCE cells, 24 and 48 hours, up to concentrations of 30 µg/mL): no cytotoxic effects

C=C1CC/C=C(\C)CC[C@@H]2[C@@H]1CC2(C)C [BCP, (1R,4E,9S)-4,11,11-Trimethyl-8-methylidenebicyclo[7.2.0]undec-4-ene]
protective effects of BCP in the cells treated with BRIM and DZL ([1]; HCE cells, 48 hours of incubation, BCP from 1.25 up to 40 µM): Significant protective effects | most advantageous combination, BCP concentration with BRIM ([1]; with 2 mg/ml BRIM, non-parametric response surface analysis): 10 µM | most advantageous combination, BCP concentration with DZL ([1]; with 0.25% DZL, non-parametric response surface analysis): 2.5 µM | early apoptosis reduced (apoptosis induced by BRIM) ([2]; 24 and 48 hours): approximately 35% | late apoptosis decrease (apoptosis induced by BRIM) ([2]; 48 hours): approximately 15%

Brc1c(NC2=NCCN2)ccc2nccnc12 [BRIM, Brimonidine tartrate]
mitochondrial membrane potential (ÿÿm) [3]: marked mitochondrial depolarization | S phase [4]: significant decreases | percentage of cells in the G2/M phase ([4]; vehicle control 12%, 2 mg/mL BRIM, 10 µM BCP): 33.73% | increase in ROS production [5]: approximately 30%
